This is an account of results in ChEMBL document CHEMBL1153247, “Synthesis and biological evaluation of substituted 2-phenyl-2H-indazole-7-carboxamides as potent poly(ADP-ribose) polymerase (PARP) inhibitors” (Bioorg Med Chem Lett, 2010).

Molecules are shown by their SMILES. Values joined by “and” are separate entries in the source; they are usually repeats but may differ in a detail not shown here. Identical values can stand only once. Some results are limits rather than exact numbers.

Usually IC50 stands for the concentration at which inhibition is half-maximal. Usually CC50 stands for the concentration giving 50% cytotoxicity. Lower therefore signals harm at low concentration. A word on the bioavailability: it is dose-corrected exposure relative to a reference, in per cent. Low values mean little systemic uptake, high ones much systemic uptake. What is called clearance is the volume of plasma or blood freed of the substance per unit of time. Lower therefore signals inefficient removal. Broadly, the microsomal CLint is a measure of how fast metabolising enzymes remove a compound, apart from limits set by blood flow. Low values mean slow turnover, high ones rapid turnover.

The subject of data set [1] is HeLa. The data set can be described thus: Cytotoxicity against human BRCA1 deficient HeLa cells after 7 days by fluorimetric analysis. To be noted: 168 h. In kind it is functional, cell-based.
Data set [2] addresses Poly [ADP-ribose] polymerase 1 (Homo sapiens, UniProt P09874). The data set can be described thus: Inhibition of human PARP1 after 3 hrs using [3H]NAD+ by scintillation proximity assay. (In general: In a scintillation proximity assay essentially only radioactivity close to the scintillant gives light.)
Data set [3] has as its system HeLa. The data set can be described thus: Cytotoxicity against human HeLa cells expressing BRCA1 after 7 days by fluorimetric analysis. In kind it is functional. To be noted: 168 h.
Data set [4] can be described thus: (§1) Oral bioavailability in rat. In kind it is ADME, organism-based. To be noted: in vivo.
Data set [5] in a line: Clearance in rat. In kind it is ADME, organism-based. To be noted: in vivo.
Another data set deals with Rattus norvegicus. Described as §1. In kind it is ADME, organism-based. To be noted: in vivo.
A short description of data set [6]: Intrinsic clearance in rat microsomes. In kind it is ADME, Microsome.

Chain of Poly [ADP-ribose] polymerase 1 (P09874 whole entry): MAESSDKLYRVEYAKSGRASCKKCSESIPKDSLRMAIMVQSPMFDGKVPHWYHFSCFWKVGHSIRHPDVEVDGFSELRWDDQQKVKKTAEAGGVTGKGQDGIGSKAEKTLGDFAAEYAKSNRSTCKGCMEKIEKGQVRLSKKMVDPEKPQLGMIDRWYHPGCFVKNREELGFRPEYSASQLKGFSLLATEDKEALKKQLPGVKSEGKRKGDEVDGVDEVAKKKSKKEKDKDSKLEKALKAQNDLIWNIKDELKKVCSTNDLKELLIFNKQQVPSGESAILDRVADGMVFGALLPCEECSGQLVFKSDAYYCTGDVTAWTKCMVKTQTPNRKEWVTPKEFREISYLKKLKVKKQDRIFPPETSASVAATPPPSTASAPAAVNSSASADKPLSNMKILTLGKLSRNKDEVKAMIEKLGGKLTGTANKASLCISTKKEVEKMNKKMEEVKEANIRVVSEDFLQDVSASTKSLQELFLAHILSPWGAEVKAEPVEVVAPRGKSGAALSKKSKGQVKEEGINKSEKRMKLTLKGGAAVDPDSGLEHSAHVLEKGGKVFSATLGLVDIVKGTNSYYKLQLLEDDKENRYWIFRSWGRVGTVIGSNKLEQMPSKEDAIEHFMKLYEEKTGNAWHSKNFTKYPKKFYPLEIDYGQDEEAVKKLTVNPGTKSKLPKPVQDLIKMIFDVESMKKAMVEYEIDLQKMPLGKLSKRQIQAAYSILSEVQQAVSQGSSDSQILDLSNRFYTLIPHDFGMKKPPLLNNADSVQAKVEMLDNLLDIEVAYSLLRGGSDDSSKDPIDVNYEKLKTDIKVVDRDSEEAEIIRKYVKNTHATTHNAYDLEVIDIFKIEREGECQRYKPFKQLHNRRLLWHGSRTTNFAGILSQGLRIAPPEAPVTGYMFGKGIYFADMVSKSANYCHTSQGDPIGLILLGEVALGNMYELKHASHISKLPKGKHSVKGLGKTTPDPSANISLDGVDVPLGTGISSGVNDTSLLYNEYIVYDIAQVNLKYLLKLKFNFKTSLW

Take `NC(=O)c1cccc2cn(-c3ccc(C(=O)NCc4ccncc4)cc3)nc12`: the IC50 in the data set with HeLa [1] stood at 3.9 µM; in data set [2], 0.01 µM. Further, it took 8.7 µM to reach half-maximal cytotoxicity with HeLa [3] (CC50).
On to `CN1CCC(C(=O)Nc2ccc(-n3cc4cc(F)cc(C(N)=O)c4n3)cc2)CC1`, for which the IC50 in the data set with HeLa [1] is 0.52 µM; in data set [2], 0.016 µM. In addition, the bioavailability in data set [4] came out at 66%. In data set [5], this compound showed a clearance of 26 mL/min/kg. Besides, in the data set on HeLa [3], the half-maximal cytotoxic concentration (CC50) was 2.7 µM.
`CNCc1ccc(-n2cc3cc(F)cc(C(N)=O)c3n2)cc1F`: the IC50 is 0.026 µM with HeLa [1] and 0.002 µM in data set [2]. In addition, the midpoint of cytotoxicity with HeLa [3], the CC50, lay at 1.5 µM.
On to `NC(=O)c1cccc2cn(-c3ccc(CNC(=O)C4CNC4)cc3)nc12`, for which the IC50 in the data set on HeLa [1] is over 20 µM; in data set [2] it was 0.065 µM. Also, the CC50 in the data set on HeLa [3] is over 20 µM.
As to `CNCc1ccc(-n2cc3ccc(F)c(C(N)=O)c3n2)cc1`, the IC50 in the data set with HeLa [1] was 1.6 µM; in data set [2] it was 0.02 µM. Also, the CC50 in the data set with HeLa [3] was over 10 µM.
For the compound `NC(=O)c1cccc2cn(-c3ccc(C(=O)N4CCCNCC4)cc3)nc12`, the IC50 in the data set with HeLa [1] is over 10 µM; in data set [2], 0.022 µM. Moreover, the CC50 in the data set with HeLa [3] is over 20 µM.
`NC(=O)c1cccc2cn(-c3cccc(C(=O)N4CCCNCC4)c3)nc12`: the IC50 in the data set with HeLa [1] is over 20 µM; in data set [2] it was 0.04 µM. Moreover, in the data set with HeLa [3], the CC50 is over 20 µM.
Consider `CNCc1ccc(-n2cc3cc(F)cc(C(N)=O)c3n2)cc1`, for which the concentration for half-maximal inhibition (IC50) in the data set on HeLa [1] turned out to be 0.094 µM; in data set [2] it was 0.0014 µM. Moreover, the CC50 with HeLa [3] came out at 1.8 µM.
For `CN1CC(C(=O)Nc2ccc(-n3cc4cc(F)cc(C(N)=O)c4n3)cc2)C1`, in that order: 0.72 µM, 0.006 µM and 2.6 µM.
For `CNCc1ccc(-n2cc3cccc(C(N)=O)c3n2)cc1OC`, in that order: 1.9 µM, 0.004 µM and 11 µM.
For `CNCc1ccc(-n2cc3c(F)c(F)cc(C(N)=O)c3n2)cc1`, in that order: 2.6 µM, 0.025 µM and over 5 µM.
Regarding `CN1CCCC(C(=O)N(C)Cc2ccc(-n3cc4cccc(C(N)=O)c4n3)cc2)C1` (stereo not drawn), the IC50 in the data set with HeLa [1] is 8.6 µM; in data set [2], 0.025 µM. In the data set on HeLa [3], the CC50 is over 20 µM.
For the compound `NC(=O)c1cccc2cn(-c3ccc(NC(=O)C4CNC4)cc3)nc12`, the IC50 amounted to 0.92 µM with HeLa [1] and 0.01 µM in data set [2]. Also, the F with Rattus norvegicus is 1% and 3%. The compound further displayed a microsomal CLint in data set [6] of 1 µL/min/mg. Also, the clearance in data set [5] came out at 13 mL/min/kg. The compound further displayed a CC50 in the data set on HeLa [3] of over 20 µM.
Turning to `NC(=O)c1cccc2cn(-c3ccc(C(=O)NCCN4CCOCC4)cc3)nc12`, the IC50 is 7.6 µM in the data set with HeLa [1] and 0.054 µM in data set [2]. In the data set with HeLa [3], this compound gave a CC50 of over 20 µM.
With `CN1CCC[C@@H](C(=O)Nc2ccc(-n3cc4cc(F)cc(C(N)=O)c4n3)cc2F)C1`, the IC50 with HeLa [1] was 0.44 µM; in data set [2], 0.012 µM. The compound also yielded a CC50 with HeLa [3] of 1.8 µM.
For the compound `NC(=O)c1cccc2cn(-c3ccc(NC(=O)CN4CCCCC4)cc3)nc12`, the IC50 in the data set with HeLa [1] came out at 1.4 µM; in data set [2], 0.02 µM. This compound yielded a CC50 in the data set with HeLa [3] of 3 µM.
The corresponding values for `CNCc1ccc(-n2cc3cc(F)cc(C(N)=O)c3n2)c(F)c1` are 0.23 µM, 0.006 µM and 4.2 µM.
On to `CN1CC(C(=O)Nc2ccc(-n3cc4cc(F)cc(C(N)=O)c4n3)cc2F)C1`, for which the values for the IC50 (in the data set on HeLa [1]; in data set [2]) were 0.48 µM and 0.006 µM, respectively. In addition, the CC50 with HeLa [3] was 1.6 µM.
As for `NC(=O)c1cccc2cn(-c3ccccc3)nc12`, in data set [2], inhibition was half-maximal at 0.025 µM (IC50).
In the case of `CN1CCC[C@H]1C(=O)Nc1ccc(-n2cc3cccc(C(N)=O)c3n2)cc1`, the results for the IC50 (with HeLa [1]; in data set [2]) were 1.2 µM and 0.017 µM, respectively. The 50% cytotoxic concentration (CC50) in the data set with HeLa [3] worked out at 5 µM.
The corresponding values for `CN(C)CCNC(=O)c1ccc(-n2cc3cccc(C(N)=O)c3n2)cc1` are 5.4 µM, 0.01 µM and 8.9 µM.
For `CNCc1ccc(-n2cc3cccc(C(N)=O)c3n2)cc1C(F)(F)F`, in that order: 6.2 µM, 0.005 µM and over 20 µM.
In the case of `CN1CCCCC1C(=O)Nc1ccc(-n2cc3cccc(C(N)=O)c3n2)cc1` (racemic), the IC50 stood at 2.6 µM in the data set with HeLa [1] and 0.046 µM in data set [2]. The CC50 in the data set on HeLa [3] amounted to 6.7 µM.
The corresponding values for `NC(=O)c1cccc2cn(-c3ccc(NC(=O)CN4CCOCC4)cc3)nc12` are 5 µM, 0.03 µM and over 6 µM.
For `CNCc1ccc(-n2cc3cccc(C(N)=O)c3n2)cc1F`, in that order: 0.2 µM, 0.004 µM and 3.8 µM.
For `CNCc1ccc(-n2cc3cccc(C(N)=O)c3n2)cc1`, in that order: 0.5 µM, 0.005 µM and 5.6 µM.
For `CNCc1ccc(-n2cc3cccc(C(N)=O)c3n2)cc1O`, the IC50 in the data set with HeLa [1] was found to be 3.4 µM; in data set [2], 0.012 µM. In the data set with HeLa [3], this compound had a CC50 of over 10 µM.
The corresponding values for `NC(=O)c1cccc2cn(-c3ccc(C(=O)NCCN4CCCC4)cc3)nc12` are 3.3 µM, 0.02 µM and 8 µM.
As to `CN1CCC[C@@H](C(=O)Nc2ccc(-n3cc4cccc(C(N)=O)c4n3)cc2)C1`, the IC50 in the data set on HeLa [1] stood at 0.82 µM; in data set [2] it was 0.03 µM. Moreover, the bioavailability in data set [4] turned out to be 47%. The clearance in data set [5] is 23 mL/min/kg. The same compound showed a 50% cytotoxic concentration (CC50) with HeLa [3] of 4.3 µM.
`CN1CCC(C(=O)Nc2ccc(-n3cc4cccc(C(N)=O)c4n3)cc2)CC1`: the IC50 came to 3.6 µM with HeLa [1] and 0.01 µM in data set [2]. In addition, in the data set on HeLa [3], the 50% cytotoxic concentration (CC50) was 8.4 µM.
The corresponding values for `CN(C)CC(=O)Nc1ccc(-n2cc3cccc(C(N)=O)c3n2)cc1` are 1.5 µM, 0.015 µM and 5 µM.
Turning to `CN1CCC[C@H](C(=O)Nc2ccc(-n3cc4cccc(C(N)=O)c4n3)cc2)C1`, the IC50 in the data set on HeLa [1] worked out at 1.3 µM; in data set [2], 0.02 µM. In data set [5], this compound returned a clearance of 42 mL/min/kg. In the data set with HeLa [3], half-maximal cytotoxicity (CC50) was put at 6 µM.
On to `CNCc1ccc(-n2cc3c(OC)ccc(C(N)=O)c3n2)cc1`, for which the IC50 in the data set on HeLa [1] was 3.4 µM; in data set [2] it was over 1 µM. For the same compound, half-maximal cytotoxicity in the data set with HeLa [3] (CC50) was put at 5.5 µM.
The corresponding values for `CNCc1ccc(-n2cc3c(O)ccc(C(N)=O)c3n2)cc1` are over 20 µM, 0.54 µM and over 20 µM.
Turning to `CN(Cc1ccc(-n2cc3cccc(C(N)=O)c3n2)cc1)C(=O)C1CNC1`, the IC50 in the data set on HeLa [1] was over 20 µM; in data set [2], 0.018 µM. In addition, the CC50 in the data set with HeLa [3] is 20 µM.
For `CNCc1ccc(-n2nc3c(C(N)=O)cccc3c2Cl)cc1`, in that order: 5.9 µM, 0.02 µM and 11 µM.
The corresponding values for `NC(=O)c1cccc2cn(-c3ccc(C(=O)NCCN4CCCCC4)cc3)nc12` are 3 µM, 0.038 µM and 6.4 µM.
For `CNCc1ccc(-n2cc3c(Cl)ccc(C(N)=O)c3n2)cc1`, in that order: 5.2 µM, 0.18 µM and 4.3 µM.
As for `CNCc1ccc(-n2cc3cc(Cl)cc(C(N)=O)c3n2)cc1`, the IC50 worked out at 0.26 µM with HeLa [1] and 0.005 µM in data set [2]. In the data set with HeLa [3], this compound yielded a 50% cytotoxic concentration (CC50) of 1 µM.
`NC(=O)c1cc(F)cc2cn(-c3ccc(NC(=O)C4CNC4)c(F)c3)nc12`: the figures for the half-maximal inhibitory concentration (IC50) (with HeLa [1]; in data set [2]) were 0.042 µM and 0.004 µM, respectively. Further, in the data set with HeLa [3], the CC50 stood at 0.65 µM.
Regarding `NC(=O)c1cc(F)cc2cn(-c3ccc(NC(=O)C4CNC4)cc3)nc12`, the IC50 came to 0.31 µM in the data set with HeLa [1] and 0.005 µM in data set [2]. Besides, the bioavailability in data set [4] came out at 3%. This compound gave a clearance in data set [5] of 13 mL/min/kg. Further, in the data set with HeLa [3], the CC50 is 5.9 µM.
As for `NC(=O)c1cccc2cn(-c3ccc(C(=O)Nc4ccncc4)cc3)nc12`, the results for the IC50 (in the data set on HeLa [1]; in data set [2]) were 7.3 µM and 0.03 µM, respectively. For the same compound, the CC50 with HeLa [3] is over 50 µM.
For `NC(=O)c1cccc2cn(-c3ccc(NC(=O)CN4CCCC4)cc3)nc12`, in that order: 0.93 µM, 0.01 µM and 2.8 µM.
For `CN1CCCC(C(=O)NCc2ccc(-n3cc4cccc(C(N)=O)c4n3)cc2)C1` (stereo not drawn), in that order: 2.3 µM, 0.022 µM and 9.4 µM.
The corresponding values for `CNCc1ccc(-n2cc3c(F)ccc(C(N)=O)c3n2)cc1` are 2.5 µM, 0.008 µM and 6.3 µM.
